Literature values as cited in patent publication US20190125725A1, “PHARMACEUTICAL COMPOSITIONS COMPRISING BRIVARACETAM” (Jubilant Generics Limited, priority 2016, published 2019).

Details: High solubility and permeability

For `CCC[C@@H]1CC(=O)N([C@@H](CC)C(N)=O)C1` [Brivaracetam, (2S)-2-[(4R)-2-oxo-4-propyltetrahydro-1H-pyrrol-1-yl] butanamide], the “Biopharmaceutics Classification System class” value is listed as “class I”.
